Where two headings read alike, the source gives them in different places.
Columns and labels:
CK1δ = CK1δ (Homo sapiens, UniProt P48730); experiment: CK1δ kinase assay (Caliper LabChip electrophoretic separation of fluoresceinated peptide substrate and product); format: biochemical; conditions: 200 pM CK1δ, 50 μM ATP, 1.5 μM peptide, 22 hours at room temperature; read-out: CK1δ IC50 range
Summary of the method: (§1)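 IC50 values were obtained by non-linear regression from eleven-concentration titrations. The kinase reactions were incubated for 22 hours at room temperature before termination with 35 mM EDTA.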

CK1ε = CK1ε (Homo sapiens, UniProt P49674); experiment: CK1ε kinase assay (Caliper LabChip electrophoretic separation of fluoresceinated peptide substrate and product); format: biochemical; conditions: 200 pM CK1ε, 50 μM ATP, 1.5 μM peptide, 22 hours at room temperature; read-out: CK1ε IC50 range
Chain of CK1ε (P49674 whole entry): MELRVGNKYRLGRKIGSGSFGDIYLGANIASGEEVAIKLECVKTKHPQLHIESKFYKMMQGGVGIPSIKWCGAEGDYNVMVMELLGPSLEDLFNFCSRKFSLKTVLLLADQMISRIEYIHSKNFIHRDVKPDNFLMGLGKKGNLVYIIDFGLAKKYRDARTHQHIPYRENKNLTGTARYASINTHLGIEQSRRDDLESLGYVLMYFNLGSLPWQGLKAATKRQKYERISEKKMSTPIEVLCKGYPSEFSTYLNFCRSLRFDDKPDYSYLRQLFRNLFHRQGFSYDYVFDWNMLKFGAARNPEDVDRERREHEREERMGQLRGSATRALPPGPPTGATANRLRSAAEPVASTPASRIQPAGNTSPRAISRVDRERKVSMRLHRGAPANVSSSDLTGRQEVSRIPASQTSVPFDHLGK
Summary of the method: as §1

pancreatic tumor cell [1] = conditions: in vivo; Brockschmidt et al., Gut 2008; cited from earlier work
pancreatic tumor cell [2] = conditions: in vitro; Brockschmidt et al., Gut 2008; cited from earlier work

Chain of CK1δ (P48730 whole entry): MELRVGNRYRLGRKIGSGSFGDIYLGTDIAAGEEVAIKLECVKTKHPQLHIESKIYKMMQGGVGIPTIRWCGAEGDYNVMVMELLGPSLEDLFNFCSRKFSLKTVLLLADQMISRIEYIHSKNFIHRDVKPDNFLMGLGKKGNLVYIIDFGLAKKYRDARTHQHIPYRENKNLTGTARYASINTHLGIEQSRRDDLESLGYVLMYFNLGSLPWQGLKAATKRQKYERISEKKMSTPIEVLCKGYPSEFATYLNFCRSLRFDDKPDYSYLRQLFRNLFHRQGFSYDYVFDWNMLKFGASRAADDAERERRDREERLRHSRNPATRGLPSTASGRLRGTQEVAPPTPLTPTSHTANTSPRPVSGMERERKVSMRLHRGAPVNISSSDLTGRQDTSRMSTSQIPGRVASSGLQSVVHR

| Compound | IC50 (CK1δ) [nM] | IC50 (CK1ε) [nM] | pancreatic tumor cell growth (pancreatic tumor cell [1]) | pancreatic tumor cell growth (pancreatic tumor cell [2]) |
| --- | --- | --- | --- | --- |
| CC(C)(C)NC(=O)N1Cc2c(C(N)=O)c(-c3cccc(Cl)c3)nn2C2(CC2)C1 [Compound A129, N^5-(tert-Butyl)-2′-(3-chlorophenyl)-4′H-spiro[cyclopropane-1,7′-pyrazolo[1,5-a]pyrazine]-3′,5′(6′H)-dicarboxamide] | 0.01 to 10 | 0.01 to 10 | – | – |
| CC(C)(C)NC(=O)N1Cc2c(C(N)=O)c(-c3cccc(F)c3)nn2C2(CC2)C1 [Compound A131, N^5′-(tert-Butyl)-2′-(3-fluorophenyl)-4′H-spiro[cyclopropane-1,7′-pyrazolo[1,5-a]pyrazine]-3′,5′(6′H)-dicarboxamide] | 10 to 100 | 10 to 100 | – | – |
| CC(C)(C)NC(=O)N1Cc2c(C(N)=O)c(-c3ccc(F)c(Cl)c3)nn2C2(CC2)C1 [Compound A132, N^5-(tert-Butyl)-2′-(3-chloro-4-fluorophenyl)-4′H-spiro[cyclopropane-1,7′-pyrazolo[1,5-a]pyrazine]-3′,5′(6′H)-dicarboxamide] | 0.01 to 10 | 0.01 to 10 | – | – |
| CC(=O)N1CC2(C1)CN(C(=O)NC(C)(C)C)Cc1c(C(N)=O)c(-c3ccc(F)c(Cl)c3)nn12 [Compound A135, 1-Acetyl-N^5′-(tert-butyl)-2′-(3-chloro-4-fluorophenyl)-4′H-spiro[azetidine-3,7′-pyrazolo[1,5-a]pyrazine]-3′,5′(6′H)-dicarboxamide] | 0.01 to 10 | 0.01 to 10 | – | – |
| NC(=O)c1c(-c2ccc(F)c(Cl)c2)nn2c1CN(C(=O)NC13CCC(F)(CC1)C3)CC2 [Compound A137, 2-(3-Chloro-4-fluorophenyl)-N^5-(4-fluorobicyclo[2.2.1]heptan-1-yl)-6,7-dihydropyrazolo[1,5-a]pyrazine-3,5(4H)-dicarboxamide] | 0.01 to 10 | 0.01 to 10 | – | – |
| NC(=O)c1c(-c2ccc(F)c(Cl)c2)nn2c1CN(C(=O)NC13CCC(CF)(CC1)C3)CC2 [Compound A138, 2-(3-Chloro-4-fluorophenyl)-N^5-(4-(fluoromethyl)bicyclo[2.2.1]heptan-1-yl)-6,7-dihydropyrazolo[1,5-a]pyrazine-3,5(4H)-dicarboxamide] | 0.01 to 10 | 0.01 to 10 | – | – |
| NC(=O)c1c(-c2ccc(F)c(Cl)c2)nn2c1CN(C(=O)NC13CCC(C(F)F)(CC1)C3)CC2 [Compound A139, 2-(3-Chloro-4-fluorophenyl)-N^5-(4-(difluoromethyl)bicyclo[2.2.1]heptan-1-yl)-6,7-dihydropyrazolo[1,5-a]pyrazine-3,5(4H)-dicarboxamide] | 0.01 to 10 | 0.01 to 10 | – | – |
| COc1cc(OC)c(C=C2C(O)=Nc3ccccc32)c(OC)c1 [IC261] | – | – | reduces pancreatic tumor cell growth | reduces pancreatic tumor cell growth |
| NC(=O)c1c(-c2ccc(Cl)c(Cl)c2)nn2c1CN(C(=O)N[C@H]1C[C@H](OC(F)(F)F)C1)CC2 [compound 265] | 0.01 to 10 | 0.01 to 10 | – | – |
| NC(=O)c1c(-c2ccc(Cl)c(Cl)c2)nn2c1CN(C(=O)NC1(CF)CC(F)(F)C1)CC2 [compound 303] | 0.01 to 10 | 0.01 to 10 | – | – |
| N^5-(tert-Butyl)-2-(3-chloro-4-fluorophenyl)-7-(2-cyanoethyl)-6,7-dihydropyrazolo[1,5-a]pyrazine-3,5(4H)-dicarboxamide [Compound A104] | 0.01 to 10 | 0.01 to 10 | – | – |

Continued, in another order:

| IC50 (CK1δ) [nM] | IC50 (CK1ε) [nM] | Compound | pancreatic tumor cell growth (pancreatic tumor cell [1]) | pancreatic tumor cell growth (pancreatic tumor cell [2]) |
| --- | --- | --- | --- | --- |
| 0.01 to 10 | 0.01 to 10 | NC(=O)c1c(-c2ccc(F)c(Cl)c2)nn2c1CN(C(=O)NC1CC(F)(F)C1)CC21CC1 [Compound A133, 2′-(3-Chloro-4-fluorophenyl)-N^5′-(3,3-difluorocyclobutyl)-4′H-spiro[cyclopropane-1,7′-pyrazolo[1,5-a]pyrazine]-3′,5′(6′H)-dicarboxamide] | – | – |
| 0.01 to 10 | 0.01 to 10 | CC(C)(C)NC(=O)N1Cc2c(C(N)=O)c(-c3ccc(F)c(Cl)c3)nn2C2(COC2)C1 [Compound A134, N^5′-(tert-Butyl)-2′-(3-chloro-4-fluorophenyl)-4′H-spiro[oxetane-3,7′-pyrazolo[1,5-a]pyrazine]-3′,5′(6′H)-dicarboxamide] | – | – |
| 0.01 to 10 | 0.01 to 10 | CC(C)(C)NC(=O)N1Cc2c(C(N)=O)c(-c3ccc(F)c(Cl)c3)nn2C(CF)(CF)C1 [Compound A136] | – | – |
| 0.01 to 10 | 0.01 to 10 | N#CC12CCC(NC(=O)N3CCn4nc(-c5ccc(F)c(Cl)c5)c(C(N)=O)c4C3)(CC1)C2 [Compound A140, 2-(3-Chloro-4-fluorophenyl)-N^5-(4-cyanobicyclo[2.2.1]heptan-1-yl)-6,7-dihydropyrazolo[1,5-a]pyrazine-3,5(4H)-dicarboxamide] | – | – |
| 0.01 to 10 | 0.01 to 10 | N#CC1(NC(=O)N2CCn3nc(-c4ccc(Cl)c(Cl)c4)c(C(N)=O)c3C2)CCOC1 (centres unmarked) [compound 335] | – | – |
